{
  "source": "patent US10251835B2",
  "about": "“Cranial delivery of pharmaceuticals” (GLIA, LLC, priority 2013, dated 2019)",
  "key": {"[1]": {"tested_on": "dogs with mucus discharge from the eyes", "experiment": "Treatment of dry eye in domestic animals", "assay_type": "in vivo, dog", "settings": "bulldog; tacrolimus directly in the eye", "excerpt": "A puggle presented with mucus discharge from the eyes. […] The owner reported that the dog has this problem spring and fall, which indicates it is allergic seasonal rhinitis. The reported use took place in the fall.\nA bulldog diagnosed with Sjogren's syndrome had mucus discharge from the eyes."}, "[2]": {"tested_on": "person with CYMBALTA induced loss of appetite", "settings": "2 mg dronabinol to forehead daily with oral CYMBALTA; 2 week course", "experimental": "The subject topically applied 2 mg of dronabinol to their forehead daily together with the oral CYMBALTA™."}, "[3]": {"tested_on": "patient with cognitive impairment due to surgery", "experiment": "Treatment of surgically induced cognitive deficits, cranially delivered dronabinol", "assay_type": "in vivo, human", "excerpt": "The patient described in Example 1 suffered from a co-morbid condition of cognitive impairment due to surgery to remove a frontal lobe glioblastoma multiforma. The cognitive impairment continued for two years following the surgery at which time treatment with cranially delivered dronabinol was begun."}, "[4]": {"tested_on": "person with late stage Alzheimer disease", "experiment": "Treatment of symptoms associated with Alzheimer's disease", "assay_type": "in vivo, human", "settings": "approximately 2 mg dronabinol to forehead, then daily dosing", "experimental": "A person diagnosed with late stage Alzheimer disease five years ago suffers from episodes of extreme agitation, aggressive behavior, and nocturnal restlessness and disorientation that is difficult for their caregiver to manage. Approximately 2 mg dronabinol was delivered cranially to their forehead."}, "[5]": {"tested_on": "patient unable to swallow with loss of appetite", "experiment": "Treatment of drug-induced anorexia and oropharyngeal dysphagia, dronabinol applied to forehead", "assay_type": "in vivo, human", "experimental": "A patient had been on dexamethasone therapy for 20 months following surgery, radiation, and chemotherapy. After tapering the dose of dexamethasone from 16 mg per day to 1.5 mg per day, the patient was unable to swallow and reported a loss of appetite. Dronabinol was administered to the patient's forehead once per day at 2.5 mg per dose. Improvement in swallowing and appetite were noted within 24 hours of the first administration.\nAfter three weeks of continued dronabinol therapy, application was again stopped for 24 hours, resulting in the same loss of appetite and difficulty swallowing.\nThe effect of oral administration of dronabinol was tested after another two weeks as an alternative to the topical route of administration described above. […] Typical meals include steak, meatball sandwich and fruit drinks.\nThe patient had also ceased dexamethasone dosing very early on."}, "[6]": {"tested_on": "subject with left-side trigeminal neuralgia and facial droop", "experiment": "Treatment of trigeminal neuralgia and facial palsy", "assay_type": "in vivo, human", "settings": "progesterone 1% (1 mg) four times daily to forehead followed by 0.15 g ganciclovir (0.15% formulation) up to five times daily", "experimental": "A subject presented with left-side trigeminal neuralgia and left side facial droop of 10 years duration. Therapy was initiated by topically applying progesterone (1% by weight) equivalent to 1 mg four times daily to the patient's forehead. This was followed by application of 0.15 g ganciclovir (as a 0.15% by weight formulation) up to five times daily."}, "[7]": {"tested_on": "patient with corneal Herpes zoster", "experiment": "Treatment of herpetic keratitis", "assay_type": "in vivo, human", "settings": "for intraocular pressure: ganciclovir gel plus progesterone to forehead", "excerpt": "A person suffered a first onset of active corneal Herpes zoster. They presented with classic Herpes Zoster symptoms including, left hemisphere unilateral skin lesions on forehead, bridge of nose area and down the nose not including the tip; left cornea dendrites, keratitis and edema; loss of functional vision, elevated intraocular pressure as high as 42 mm Hg, conjunctival irritation and redness and anesthetic cornea. There were also general body flu symptoms.\nThe patient was initially treated with ophthalmic prednisolone acetate 1% up to 5 times daily, ophthalmic antibiotics, non-prescription ophthalmic wetting agents, and lubrication with gels administered to the eye. Additional drug therapies included systemic oral valcyclovir as high as 2 g per day and medications to reduce intraocular pressure.\nDespite the therapy, symptom flare-up was as frequent as 2 weeks to 1 month over the past 10 years. Although intraocular pressure returned to within the normal range, cataracts formed as a result of long term use of corticosteroids.\nThe cornea surface contour became increasingly distorted with prominent ridges. There was incursion of capillaries across the conjunctiva into the cornea, both superficially and deep. Deposition of phospholipids through a leaching process occluded the cornea with grey color deposits on about 50% of its surface.\nCorneal thinning had progressed to near perforation levels which required preparation for corneal patch surgery.\nAt this point, 1% topical progesterone (approximately 1 mg of progesterone) was first administered as a method to keep the cornea from perforating and the tear film intact. The drug was applied to the forehead 4 times daily together with topical antibiotics and corticosteroids.\nAfter stabilizing the cornea, antiviral treatment was begun with ganciclovir gel (0.15%; 0.15 mg of drug) applied five times daily to the forehead together with once daily progesterone (1%; 1 mg of drug) and a nightly drop of ophthalmic antibiotic. Intraocular pressure measured at the onset of ganciclovir treatment was 18 mm Hg.\nThe patient reported a decrease in eye strain as a result of an improvement in tear film. […] Over the next two weeks, inflammation was further reduced and visual acuity increased somewhat when the head was tilted back. During the first full month of treatment, the affected eye generally felt comfortable. There was a lack of inflammation, and some vision returned to the threshold of functionality. Intraocular pressure remained normal in the range of 16 mm Hg.\nThere was modest improvement in reading the eye chart, and corneal staining due to defects was minimized. Intraocular pressure remained normal in both eyes at about 16 mm Hg during this period. The phospholipid deposits further reduced in density and began to give the appearance of lesser areas of concentrations. Nearly functional vision could be achieved by positioning the head back and viewing through the central cornea. The residual clear area of the cornea became more so and less inflamed. Through the end of the second month, improvement to the cornea accelerated. The pupil was now clearly visible and more light was entering the eye.\nThe patient was examined regularly by an ophthalmologist, and after three and one half months of treatment. The intraocular pressure was normal at 12 mm Hg. […] Intraocular pressure has remained in the same range for more than one year."}, "person": {"tested_on": "person", "experiment": "Rapid anti-anxiety treatment", "assay_type": "in vivo, human", "settings": "1 mg midazolam to forehead", "experimental": "A person applied 1 mg of midazolam to their forehead on three separate occasions. […] These effects lasted for 4 to 6 hours after application of the drug."}},
  "note": "“Also recorded” adds a separate entry of the source.",
  "data": [
    {"smiles": "C=CC[C@@H]1/C=C(\\C)C[C@H](C)C[C@H](OC)[C@H]2O[C@@](O)(C(=O)C(=O)N3CCCC[C@H]3C(=O)O[C@H](/C(C)=C/[C@@H]3CC[C@@H](O)[C@H](OC)C3)[C@H](C)[C@@H](O)CC1=O)[C@H](C)C[C@@H]2OC", "note": "[tacrolimus]", "values": [
      {"measurement": "mucus discharge from the eyes", "setting": "[1]", "result": "without completely stopping the discharge"}
    ]},
    {"smiles": "CCCCCc1cc(O)c2c(c1)OC(C)(C)[C@@H]1CCC(C)=C[C@@H]21", "note": "(relative stereo) [dronabinol, (6aR-trans)-6a,7,8,10a-tetrahydro-6,6,9-trimethyl-3-pentyl-6H-dibenzo[b,d]pyran-1-ol]", "values": [
      {"measurement": "prevention of CYMBALTA induced loss of appetite", "setting": "[2]", "result": "prevented the CYMBALTA™ induced loss of appetite"},
      {"measurement": "scar tissue around the area of surgery as detected by imaging", "setting": "[3]", "result": "noticeable decrease in scar tissue"},
      {"measurement": "cognitive function (noted by physicians)", "setting": "[3]; begun two years after surgery", "result": "dramatic improvement in cognitive function"},
      {"measurement": "agitation, aggressive behavior, nocturnal restlessness symptoms", "setting": "[4]", "result": "improvement in their symptoms was observable within two hours; also recorded: less frequent nocturnal disturbances; also recorded: additional significantly noticeable improvement in their symptoms"},
      {"measurement": "appetite and swallowing after missing dronabinol therapy", "setting": "[5]; after missing one day of dronabinol therapy", "result": "decrease in appetite and difficulty swallowing liquids"},
      {"measurement": "dose requirement on continued treatment", "setting": "[5]; after one year of cranial dosing with challenge stops and restarts", "result": "No increase in dose has been required; also recorded: daily dosing is necessary for continued effectiveness"},
      {"measurement": "appetite and swallowing (patient report)", "setting": "[5]; dronabinol 2.5 mg applied to forehead, four weeks, restarts and single rescue doses", "result": "healthy appetite and no problems swallowing; also recorded: normal appetite and swallowing after one day; also recorded: complete reversal of symptoms within about two hours; also recorded: rescued again by single dose applied cranially"},
      {"measurement": "time to improvement in swallowing and appetite", "setting": "[5]; dronabinol 2.5 mg per dose to forehead once per day, after first administration", "result": "≤ 24", "unit": "h"},
      {"measurement": "swallowing and chewing under oral administration", "setting": "[5]; oral 2.5 mg dronabinol instead of topical, within one day", "result": "difficulty swallowing and chewing"}
    ]},
    {"smiles": "Nc1nc(O)c2ncn(COC(CO)CO)c2n1", "note": "[ganciclovir]", "values": [
      {"measurement": "facial muscles contracted for 10 years", "setting": "[6]", "result": "relaxation of facial muscles"},
      {"measurement": "inflammation, visual acuity and state of affected eye", "setting": "[7]; ganciclovir gel 0.15% (0.15 mg) five times daily plus progesterone 1% (1 mg) once daily to forehead, nightly ophthalmic antibiotic, 1 week to 3.5 months", "result": "less inflammation and a slight improvement in visual acuity; also recorded: some functional vision was attained; also recorded: stable and normalizing"},
      {"measurement": "intraocular pressure", "setting": "[7]; after three and one half months", "result": 12, "unit": "mm Hg"},
      {"measurement": "intraocular pressure", "setting": "[7]; both eyes, examination period up to third month", "result": "about 16 mm Hg"},
      {"measurement": "intraocular pressure", "setting": "[7]; first full month of treatment", "result": "~16", "unit": "mm Hg"}
    ]},
    {"smiles": "Cc1ncc2n1-c1ccc(Cl)cc1C(c1ccccc1F)=NC2", "note": "[midazolam]", "values": [
      {"measurement": "duration of effects", "setting": "person", "result": "4 to 6", "unit": "h"},
      {"measurement": "effect produced", "setting": "person", "result": "mild sedation and anti-anxiety"},
      {"measurement": "time to response", "setting": "person; three separate occasions", "result": "≤ 5", "unit": "min"}
    ]}
  ]
}
